US6313114A, “3,4-Dihydro-2H-benzo[1,4]oxazinyl-methyl)-[3-(1H-indol-3yl)-alkyl]- amines” (American Home Products Corp, priority 1999, dated 2001)

Key:
human 5-HT1A receptor = target: T1, human 5-HT1A receptor (Homo sapiens, UniProt P08908); experiment: [3H]8-OH-DPAT competition binding to cloned human 5-HT1A receptor (CHO cell membranes); settings: [3H]8-OH-DPAT 1.5 nM; CHO cells expressing human 5-HT1A
T1 construct: expressed in transfected cells
T1 sequence (P08908 1-422): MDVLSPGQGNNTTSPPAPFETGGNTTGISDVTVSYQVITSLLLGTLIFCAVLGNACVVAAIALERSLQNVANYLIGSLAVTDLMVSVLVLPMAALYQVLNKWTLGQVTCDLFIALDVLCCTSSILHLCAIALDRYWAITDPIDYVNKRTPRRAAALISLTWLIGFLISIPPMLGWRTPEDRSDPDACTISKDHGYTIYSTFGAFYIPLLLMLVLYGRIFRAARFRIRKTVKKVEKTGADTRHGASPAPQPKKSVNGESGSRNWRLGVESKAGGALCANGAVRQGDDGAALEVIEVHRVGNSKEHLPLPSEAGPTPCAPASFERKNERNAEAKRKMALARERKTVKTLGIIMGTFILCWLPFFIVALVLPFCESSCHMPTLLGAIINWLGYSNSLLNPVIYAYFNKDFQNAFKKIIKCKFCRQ
Experimental: A stable Chinese hamster ovary cell line expressing the human 5-HT1A receptor subtype (5H-HT1A .CHO cells) was employed throughout this procedure. Cells were maintained in DMEM supplemented with 10% fetal calf serum, non-essential amino acids and penicillin/ streptomycin.
Cells were grown to 95-100% confluency as a monolayer before membranes were harvested for binding studies. Cells were gently scraped from the culture plates, transferred to centrifuge tubes, and washed twice by centrifugation (at 2000 rpm for 10 min., 4° C.) in buffer (50 mM Tris; pH 7.5). The resulting pellets were aliquoted and stored at -80° C. until needed. On the day of assay, the cells were thawed on ice, and resuspended in buffer. Studies were conducted using [^3 H]8-OH-DPAT as the radioligand. The binding assay was performed in 96 well microtiter plates in a final total volume of 250 μL of buffer. […] Non-specific binding was determined in the presence of 10 μM 5HT. Saturation analysis was conducted by using [^3 H]8-OH-DPAT at concentrations ranging from 0.3-30 nM. Following a 30 minute incubation at room temperature, the reaction was terminated by the addition of ice cold buffer and rapid filtration using a M-96 Brandel Cell Harvester through a GF/B filter presoaked for 30 minutes in 0.5% polyethyleneimine.

serotonin transporter = target: T2, serotonin transporter (Rattus norvegicus, UniProt P31652); experiment: 3H-paroxetine binding to serotonin transporter in rat frontal cortical membranes; design: species or system male Sprague-Dawley rats
T2 construct: frontal cortical membranes prepared from male Sprague-Dawley rats; from tissue; host or cells: frontal cortical membranes of male Sprague-Dawley rats
T2 sequence (P31652 whole entry): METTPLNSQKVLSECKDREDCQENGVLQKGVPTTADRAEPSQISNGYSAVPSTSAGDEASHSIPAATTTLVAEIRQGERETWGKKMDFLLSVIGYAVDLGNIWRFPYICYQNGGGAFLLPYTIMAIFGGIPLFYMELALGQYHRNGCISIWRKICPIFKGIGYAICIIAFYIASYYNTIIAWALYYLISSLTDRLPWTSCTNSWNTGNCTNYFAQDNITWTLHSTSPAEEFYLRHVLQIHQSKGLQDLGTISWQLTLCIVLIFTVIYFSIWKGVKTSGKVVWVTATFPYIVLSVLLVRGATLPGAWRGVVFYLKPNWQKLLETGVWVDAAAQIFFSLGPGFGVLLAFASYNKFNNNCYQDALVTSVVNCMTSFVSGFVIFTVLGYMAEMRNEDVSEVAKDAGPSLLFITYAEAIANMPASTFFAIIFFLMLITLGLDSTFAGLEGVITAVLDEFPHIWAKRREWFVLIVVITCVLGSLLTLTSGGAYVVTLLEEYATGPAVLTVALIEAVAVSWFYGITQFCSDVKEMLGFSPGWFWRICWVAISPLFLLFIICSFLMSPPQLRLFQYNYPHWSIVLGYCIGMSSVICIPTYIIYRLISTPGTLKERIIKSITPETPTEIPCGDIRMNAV
Experimental: Briefly, frontal cortical membranes prepared from male Sprague-Dawley rats were incubated with ^3 H-paroxetine (0.1 nM) for 60 min at 25° C. All tubes also contained either vehicle, test compound (one to eight concentrations), or a saturating concentration of fluoxetine (10 μM) to define specific binding. All reactions were terminated by the addition of ice cold Tris buffer followed by rapid filtration using a Tom Tech filtration device to separate bound from free ^3 H-paroxetine.

c1ccc(CN2CC(CNCCCCc3c[nH]c4ccccc34)Oc3ccccc32)cc1 (centres unmarked) [Example 4, (4-Benzyl-3,4-dihydro-2H-benzo[1,4]oxazin-2ylmethyl)-[3-(1H-indo-3-yl)-butyl]-amine]
Ki (human 5-HT1A receptor): 76.1 nM
Ki (serotonin transporter): 81 nM
